Test results: patent publication US11401253B2, “16-methyl-oxacyclohexadecan-2-one and 16-methyl-azacyclohexadecan-2-one derivatives as antimicrobial agents” (THE UNIVERSITY OF MONTANA, priority 2017, dated 2022)
Values after ≈ are worked out from the molar mass of the structure shown. Values joined by “and” are separate entries in the source; they are usually repeats but may differ in a detail not shown here. Equal entries are not always repeated. Where two headings read alike, the source gives them in different places.

Columns and labels:
[1] = test system: Staphylococcus aureus (13709); assay: Antibiotic testing (MIC), S. aureus 13709; format: cell-based; details: growth inhibition ≥90% relative to drug-free controls, read-out: minimum inhibitory concentration, Staphylococcus aureus (13709)
Streptococcus pyogenes = assay: Antibiotic testing (MIC), Streptococcus pyogenes; format: cell-based; details: growth inhibition ≥90%, read-out: minimum inhibitory concentration, Streptococcus pyogenes
Candida glabrata = assay: Antibiotic testing (MIC), Candida glabrata; format: cell-based; details: Nakaseomyces glabratus; growth inhibition ≥90%; read-out: minimum inhibitory concentration, Candida glabrata
Bacillus subtilis = assay: Antibiotic testing (MIC), Bacillus subtilis; format: cell-based; details: growth inhibition ≥90%, read-out: minimum inhibitory concentration, Bacillus subtilis
C. albicans = assay: Antibiotic testing (MIC), C. albicans; format: cell-based; details: Candida albicans; growth inhibition ≥90%; read-out: minimum inhibitory concentration, C. albicans
B. anthracis = assay: microbe, parasite or virus in culture; format: cell-based; details: Bacillus anthracis, read-out: minimum inhibitory concentration, B. anthracis
Enterococcus faecalis = assay: Antibiotic testing (MIC), Enterococcus faecalis; format: cell-based; details: growth inhibition ≥90%, read-out: minimum inhibitory concentration, Enterococcus faecalis
S. aureus CAIRD116 = assay: Antibiotic testing, methicillin-resistant S. aureus CAIRD116; format: cell-based; details: methicillin-resistant strain; for MIC: Staphylococcus aureus, CAIRD116
Description: (§1) Both the methyl ester and the diacetate derivatives of BPL 76 slightly less but still very strong activity against the same four MRSA strains (Table 11). The activities of compounds BPL 76 and BPL 81 were compared to several known antibiotics against three methicillin-resistant strains of S. aureus [FIG. 6, comparative data provided by Hartford Hospital, Center for Anti-Infective Research and Development (CAIRD)].

S. aureus CAIRD142 = assay: Antibiotic testing, methicillin-resistant S. aureus CAIRD142; format: cell-based; details: methicillin-resistant strain; for MIC: Staphylococcus aureus, CAIRD142
Description: as §1

S. aureus CAIRD148 = assay: Antibiotic testing, methicillin-resistant S. aureus CAIRD148; format: cell-based; details: methicillin-resistant strain; for MIC: Staphylococcus aureus, CAIRD148
Description: as §1

S. aureus (NE277) = assay: Antibiotic testing, methicillin-resistant S. aureus NE277; format: cell-based; details: for MIC: Staphylococcus aureus, read-out: antibiotic testing data (MIC), S. aureus (NE277); for antibiotic testing data (MIC), S. aureus (NE277): methicillin-resistant strain
Description: as §1

K. pneumoniae (10031) = assay: Antibiotic testing (MIC), gram negative K. pneumoniae; format: cell-based
Protocol: (§2) None of this collection of compounds were active against Gram-negative bacteria
(§3) Additionally, BPL 76 and derivatives were tested against a panel of gram negative bacteria including K. pneumonia, P. aeruginosa and E. coli (Table 12).

P. aeruginosa = assay: Antibiotic testing (MIC), gram negative P. aeruginosa; format: cell-based
Protocol: as §2, §3

E. coli (25922) = assay: Antibiotic testing (MIC), gram negative E. coli; format: cell-based
Protocol: as §2, §3

[2] = test system: non-replicating persistence Mycobacterium tuberculosis (NRP-TB); assay: Low oxygen recovery assay (LORA), non-replicating persistence Mtb; format: cell-based; details: for MIC: Mycobacterium tuberculosis, non-replicating persistence, hypoxic conditions, read-out: MIC, LORA
Vero cell = assay: Cytotoxicity (MTS), Vero cells; format: cell-based, monkey; details: Primates, 72 hours exposure
HepG2 = assay: Cytotoxicity (MTS), HepG2 cells; format: cell-based; details: Homo sapiens, 72 hours exposure
J774 = assay: Cytotoxicity (MTS), J774 cells; format: cell-based, murine; details: Mus musculus, 72 hours exposure
[3] = test system: Mycobacterium tuberculosis; assay: microbe, parasite or virus in culture; details: read-out: MIC, MABA
MMP-3 = molecular target: T1, MMP-3 (Homo sapiens, UniProt P08254); assay: MMP-3 enzyme inhibition assay; format: biochemical
T1 construct: purchased BioMol
T1 sequence (P08254 100-477): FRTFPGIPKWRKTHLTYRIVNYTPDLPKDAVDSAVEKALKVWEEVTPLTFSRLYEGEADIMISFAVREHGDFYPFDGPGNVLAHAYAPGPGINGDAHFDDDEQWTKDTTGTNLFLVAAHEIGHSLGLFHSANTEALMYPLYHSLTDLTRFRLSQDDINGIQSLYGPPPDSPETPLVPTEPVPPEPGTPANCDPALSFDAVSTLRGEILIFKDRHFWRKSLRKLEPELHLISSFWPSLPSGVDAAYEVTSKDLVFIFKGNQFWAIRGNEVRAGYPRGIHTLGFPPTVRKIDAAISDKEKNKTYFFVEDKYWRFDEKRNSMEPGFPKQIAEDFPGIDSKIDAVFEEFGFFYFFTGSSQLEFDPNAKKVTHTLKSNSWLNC
Protocol: The two fungi were also co-cultured under controlled conditions. P. fuscum was grown in pure culture in potato dextrose broth (10×400 mL). After 24 h, an agar cube (8 mm^3) impregnated with P. camembertii/clavigerum mycelium was added to each flask and the resulting co-culture was shaken for 6 more days (200 rpm, room temperature). At time of harvest, methanol (50 mL/flask) was added, the mycelia were removed by gravity filtration and the broth was extracted with chloroform (3×2 L). The chloroform was removed in vacuo to yield 663 mg of crude extract. The crude extract was verified to be active in the MMP-3, caspase-1 and caspase-3 enzyme inhibition assays. Enzyme inhibitory activity was determined using specific BioMol enzyme inhibition assay kits for drug discovery as described in Stierle, A; Stierle, D. The Berkeleylactones, Antibiotic Macrolides from Fungal Coculture. J. Nat. Prod. 80, 4, 1150-1160.

[4] = test system: Mycobacterium tuberculosis
GFP synthesis = assay: Cell-free translation assay with GFP reporter; format: biochemical; details: 50 μM, 37° C., readings for 2 hr
Protocol: Further assessment of the effect of BPL76 on protein translation was done using a cell-free translation assay. The plasmid pY71-sfGFP^55 (5 ng) was translated in the PUREexpress in vitro protein synthesis system (New England Biolabs). The final concentrations of erythromycin, josamycin and tylosin in the translation reactions were 50 μM. The reactions were incubated at 37° C. and fluorescence readings (excitation: 488 nm, emission, 520 nm) were taken every 20 min for 2 hr.

[5] = Klebsiella pneumoniae; read-out: MIC, K. pneumoniae (10031)
[6] = Pseudomonas aeruginosa; read-out: MIC, P. aeruginosa
[7] = Escherichia coli; read-out: MIC, E. coli (25922)

Row | SMILES | MIC [1] | MIC (Streptococcus pyogenes) | MIC (Candida glabrata) | MIC (Bacillus subtilis) | MIC (C. albicans) | MIC (B. anthracis) | MIC (S. aureus CAIRD116) | MIC (S. aureus CAIRD142) | MIC (S. aureus CAIRD148) | MIC (S. aureus (NE277)) | MIC (K. pneumoniae (10031); [5]) | MIC (P. aeruginosa; [6]) | MIC (E. coli (25922); [7]) | inhibition of GFP synthesis and corresponding fluorescence (GFP synthesis) | further results
1 | COC(=O)[C@H](O)CS[C@@H]1CC(=O)[C@@H](O)CCCCCCCCC[C@@H](C)OC1=O [BPL 76-Me ester, methyl (S)-2-hydroxy-3-(((3R,6S,16R)-6-hydroxy-16-methyl-2,5-dioxooxacyclohexadecan-3-yl)thio)propanoate] | 1 µg/mL (≈ 2.39 µM) | 3 µg/mL (≈ 7.17 µM) | 7 µg/mL (≈ 16.7 µM) | 3 µg/mL (≈ 7.17 µM) | 13 µg/mL (≈ 31.1 µM) | 1 µg/mL (≈ 2.39 µM) | 2 µg/mL (≈ 4.78 µM) | 2 µg/mL (≈ 4.78 µM) | 2 µg/mL (≈ 4.78 µM) | 2 µg/mL (≈ 4.78 µM) | 250 µM and 105 µg/mL | > 250 µM | 125 µM and 52.3 µg/mL | – | MIC (Enterococcus faecalis): 3 µg/mL (≈ 7.17 µM); MIC [2]: 19 µg/mL (≈ 45.4 µM); IC50 (Vero cell): 74 µg/mL (≈ 177 µM); IC50 (HepG2): 55.6 µg/mL (≈ 133 µM); IC50 (J774): 38 µg/mL (≈ 90.8 µM); MIC [3]: 32 µg/mL (≈ 76.5 µM)
2 | COC(=O)[C@@H](CS[C@@H]1CC(=O)[C@@H](OC(C)=O)CCCCCCCCC[C@@H](C)OC1=O)OC(C)=O [BPL 76-diacetate, methyl (S)-2-acetoxy-3-(((3R,6S,16R)-6-acetoxy-16-methyl-2,5-dioxooxacyclohexadecan-3-yl)thio)propanoate] | 2 µg/mL (≈ 3.98 µM) | 15 µg/mL (≈ 29.8 µM) | > 125 µg/mL | 7 µg/mL (≈ 13.9 µM) | > 125 µg/mL | 4 µg/mL (≈ 7.96 µM) | 4 µg/mL (≈ 7.96 µM) | 7 µg/mL (≈ 13.9 µM) | 4 µg/mL (≈ 7.96 µM) | 4 µg/mL (≈ 7.96 µM) | > 125 µM | > 125 µM | > 125 µM | – | MIC (Enterococcus faecalis): 15 µg/mL (≈ 29.8 µM)
3 | C[C@@H]1CCCCCCCCC[C@H](OC(=O)CCC(=O)O)[C@H](O)/C=C/C(=O)O1 [BPL 84, 4-(((5R,6S,16R,E)-5-hydroxy-16-methyl-2-oxooxacyclohexadec-3-en-6-yl)oxy)-4-oxobutanoic acid] | 45 µg/mL (≈ 117 µM) | > 90 µg/mL | > 90 µg/mL | > 90 µg/mL | > 90 µg/mL | > 90 µg/mL | > 90 µg/mL | > 90 µg/mL | > 90 µg/mL | > 90 µg/mL | > 250 µM | > 250 µM | > 250 µM | – | antibiotic testing data (MIC), S. aureus CAIRD116 (S. aureus CAIRD116): >250 µM; antibiotic testing data (MIC), S. aureus CAIRD142 (S. aureus CAIRD142): >250 µM; antibiotic testing data (MIC), S. aureus CAIRD148 (S. aureus CAIRD148): >250 µM; antibiotic testing data (MIC), S. aureus (NE277) (S. aureus (NE277)): >250 µM; activity against non-replicating Mtb (in words) ([2]; LORA): not active; MIC [2]: > 100 µg/mL; IC50 (Vero cell): > 100 µg/mL; IC50 (HepG2): > 100 µg/mL; IC50 (J774): > 100 µg/mL; MMP-3 inhibition (MMP-3): weaker inhibitors; activity against replicating Mtb (in words) ([4]; MABA): not active; MIC [3]: > 100 µg/mL
4 | C[C@H]1OC(=O)/C=C/[C@@H](O)[C@@H](OC(=O)CCC(=O)O)CCCCCCCC[C@@H]1O [BPL 86, 4-(((5R,6S,15 S,16R,E)-5,15-dihydroxy-16-methyl-2-oxooxacyclohexadec-3-en-6-yl)oxy)-4-oxobutanoic acid] | 24 µg/mL (≈ 59.9 µM) | > 50 µg/mL | > 50 µg/mL | > 50 µg/mL | > 50 µg/mL | 24 µg/mL (≈ 59.9 µM) | 47 µg/mL (≈ 117 µM) | 47 µg/mL (≈ 117 µM) | 47 µg/mL (≈ 117 µM) | 47 µg/mL (≈ 117 µM) | – | – | – | – | antibiotic testing data (MIC), S. aureus CAIRD116 (S. aureus CAIRD116): 125 µM; antibiotic testing data (MIC), S. aureus CAIRD142 (S. aureus CAIRD142): 125 µM; antibiotic testing data (MIC), S. aureus CAIRD148 (S. aureus CAIRD148): 125 µM; antibiotic testing data (MIC), S. aureus (NE277) (S. aureus (NE277)): 125 µM; MIC (K. pneumoniae (10031); Klebsiella pneumoniae, read-out: MIC, K. pneumoniae (10031)): > 125 µM; MIC (P. aeruginosa; Pseudomonas aeruginosa, read-out: MIC, P. aeruginosa): > 125 µM; MIC (E. coli (25922); Escherichia coli, read-out: MIC, E. coli (25922)): > 125 µM; MMP-3 inhibition (MMP-3): weaker inhibitors
5 | COc1c(N2C[C@@H]3CCCN[C@@H]3C2)c(F)cc2c(=O)c(C(=O)O)cn(C3CC3)c12 [MOX - Moxifloxicin, Moxifloxicin, reference compound] | – | – | – | – | – | – | – | – | – | – | – | – | – | – | MIC, MABA ([4]; normal (replicating) conditions, known antibiotics): 0.2 µM (≈ 0.0803 µg/mL)
6 | CC[C@H]1OC(=O)[C@H](C)[C@@H](O[C@H]2C[C@@](C)(OC)[C@@H](O)[C@H](C)O2)[C@H](C)[C@@H](O[C@@H]2O[C@H](C)C[C@H](N(C)C)[C@H]2O)[C@](C)(O)C[C@@H](C)C(=O)[C@H](C)[C@@H](O)[C@]1(C)O [erythromycin] | – | – | – | – | – | – | – | – | – | – | – | – | – | effectively inhibited | –
7 | CO[C@@H]1[C@@H](O[C@@H]2O[C@H](C)[C@@H](O[C@H]3C[C@@](C)(O)[C@@H](OC(=O)CC(C)C)[C@H](C)O3)[C@H](N(C)C)[C@H]2O)[C@@H](CC=O)C[C@@H](C)[C@@H](O)/C=C/C=C/C[C@@H](C)OC(=O)C[C@H]1OC(C)=O [josamycin] | – | – | – | – | – | – | – | – | – | – | – | – | – | effectively inhibited | –
8 | CC[C@H]1OC(=O)C[C@@H](O)[C@H](C)[C@@H](O[C@@H]2O[C@H](C)[C@@H](O[C@H]3C[C@@](C)(O)[C@@H](O)[C@H](C)O3)[C@H](N(C)C)[C@H]2O)[C@@H](CC=O)C[C@@H](C)C(=O)/C=C/C(C)=C/[C@@H]1CO[C@@H]1O[C@H](C)[C@@H](O)[C@@H](OC)[C@H]1OC [tylosin] | – | – | – | – | – | – | – | – | – | – | – | – | – | effectively inhibited | –
